The results in this text go back to patent US6514538B1, “External preparations for skin whitening” (Shiseido Company, Ltd., priority 1999, dated 2003).

The test deals with skin of an inner lateral part of the upper arm of testees exposed to summer sunlight. Nature of the test: Whitening effect testing (lotion on sun-exposed skin of testees). In kind it is in vivo, human. Particulars: blend ratio 1.0 wt %, applied twice a day for 4 weeks. As for the experimental part:
66 testees were exposed to summer sunlight for 4 hours (2 hours a day for 2 days) and the skin of an inner lateral part of their upper arm was used as the subject of the test. […] The panel was divided into 11 groups with 6 persons in each group. Testing was conducted using lotion with the following formulas. [table] The water phase and the alcohol phase were prepared separately and then solubilized. The hypochromic effect after the application was evaluated based on the criteria below. ⊚: Very effective or effective on 80% or more of the testees ◯: Very effective or effective on 50% to less than 80% of the testees Δ: Very effective or effective on 30% to less than 50% testees ×: Very effective or effective on less than 30% of the testees Samples were prepared with the blend compositions described in the aforementioned test method, and the drugs listed in Table 2 were used to compare the whitening effect.

`Oc1ccc(O)cc1` [Hydroquinone]: the “Effect (hypochromic effect after the application)” value is reported as “Δ (Very effective or effective on 30% to less than 50% testees)”.
